{"source": "patent US12115193B2", "about": "“Methods of using RARγ agonists for cancer treatment” (Io Therapeutics, Inc., priority 2021, dated 2024)", "key": {"[1]": {"biological_target": "T1, RARγ (Homo sapiens, UniProt P13631)", "T1 construct": "expression plasmids encoding the full-length receptors RARα and RARγ; expressed in transfected cells", "T1 sequence (P13631 1-454)": "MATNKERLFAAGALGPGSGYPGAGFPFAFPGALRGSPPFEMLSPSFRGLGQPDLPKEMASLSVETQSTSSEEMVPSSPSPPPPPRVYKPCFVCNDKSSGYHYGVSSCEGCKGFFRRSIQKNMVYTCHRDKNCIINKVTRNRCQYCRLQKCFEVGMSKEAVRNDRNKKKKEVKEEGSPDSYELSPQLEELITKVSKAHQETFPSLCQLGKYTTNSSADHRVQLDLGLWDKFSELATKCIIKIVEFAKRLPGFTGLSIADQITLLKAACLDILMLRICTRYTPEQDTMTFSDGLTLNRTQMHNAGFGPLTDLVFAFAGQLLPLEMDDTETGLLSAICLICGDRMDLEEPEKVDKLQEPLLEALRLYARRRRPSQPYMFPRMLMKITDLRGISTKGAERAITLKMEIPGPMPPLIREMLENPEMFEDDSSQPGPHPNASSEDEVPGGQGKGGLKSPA", "experiment": "RARγ transactivation assay (luciferase reporter)", "format": "cell-based", "conditions": "at all tested concentrations (0.5 to 625 nM); receptor not given", "method": "Transactivation assays were conducted to test the specificity of binding activity of GA1E and GA2E for RARα and RARγ. Retinoic acid receptor transactivation activity and binding efficiencies were determined essentially as described in U.S. Pat. Nos. 5,298,429 and 5,071,773, incorporated by reference herein for all they teach regarding transactivation assays. Transactivation assays employed expression plasmids encoding the full-length receptors RARα and RARγ. Reporter plasmids containing the herpes virus thymidine kinase promoter and the appropriate retinoic acid receptor response element (RAREs) were positioned upstream of an open coding region encoding firefly luciferase.\nThe ability of GA1E and GA2E to activate RARα and RARγ in a transactivation assay was tested over a concentration range of 0.5 to 625 nM (GA2E) or 0.05 to 3320 nM (GA1E). GA1E induced less than 10% transactivation for RARα across the whole concentration range, but over 50% transactivation for RARγ at concentrations ≥25 nM and over 70% at concentrations 125 nM (FIG. 3A). GA2E induced more than 85% transactivation at all tested concentrations and less than 10% transactivation of RARα at concentrations of ≤25 nM (FIG. 3B)."}, "[2]": {"tested_on": "TIL in EMT6 tumors", "experiment": "Flow cytometry of excised EMT6 tumors (Example 4)", "format": "in vivo, mouse", "excerpt": "At the end of the study of Example 3, the tumors were excised, the cells disaggregated and dispersed without use of proteases, stained with various agents, and subjected to flow cytometry. FIG. 5A-B present the results of the flow cytometry both as a percentage of cells and as the number of cells per tumor. […] Of these live cells, a substantial proportion were leukocytes (FIG. 5A, “CD45” panels). […] The majority of the T cells were CD4+(FIG. 5A, “CD4” panels), expected to be predominantly helper cells. Of the CD4^+ cells, only small proportions were T memory cells (expected to be predominantly TH1 memory cells) based on intracellular staining for IFNγ (FIG. 5B, “TH IFGγ” panels), TH17 cells based in intracellular staining for IL-17 (FIG. 5B, “TH IL17” panels), or Treg cell based on staining for CD25 and FoxP3 (FIG. 5B, “Treg” panels). About 25-30% of the T cells were CD8^+ (FIG. 5B, “CD8 T” panels), expected to be predominantly cytotoxic cells."}, "[3]": {"tested_on": "EMT6 cells", "experiment": "EMT6 triple negative breast cancer model, various dosages (Example 5)", "format": "in vivo, mouse", "excerpt": "The EMT6 triple negative breast cancer model, essentially as described above, was used to assess the effects of increased dosages of GA2E. The mice were orally administered 10 (n=10), 25 (n=10), or 50 (n=11) mg/kg of GA2E, or vehicle control (n=10) daily for 17 days. […] Two mice in the vehicle control group were terminated at Day 12 with tumors >1500 mm^3."}, "[4]": {"tested_on": "Lewis lung carcinoma (LLC) cells", "experiment": "Lewis lung carcinoma in vitro culture viability, Cell Titer Glo Assay", "format": "cell-based, mouse", "method": "Lewis lung carcinoma (LLC) cells were cultured in vitro the presence of a multiple concentrations of the RARγ agonists GA1E, GA2E, and GA3Ep and viability assessed by the Cell Titer Glo Assay®."}, "[5]": {"tested_on": "TIL in LLC tumors", "experiment": "Flow cytometry of LLC tumors, Day 13", "format": "in vivo, mouse", "excerpt": "The mice were sacrificed on Day 13 of the study and the tumors collected and analyzed by flow cytometry. Statistical analysis was by ordinary one-way ANOVA with Tukey's test for significance comparison between groups. Gates were set to identify single cells by forward light scatter, live cells as single cells based on side scatter and staining with the vital stain Fixable Viability Dye eFluor™ 780, white blood cells from live cells based on side scatter and staining with anti-CD45, lymphocytes from white blood cells based on side and forward light scatter, and total T lymphocytes (tot T) from lymphocytes based on side scatter and staining with anti-CD3. Total T lymphocytes were divided into CD4^+ (TH) and CD8^+ (TC) lymphocytes based on staining with and anti-CD4 and CD8 antibodies and subsets assessed (FIG. 20). The following observations were made on a per-mg of tumor tissue basis."}, "[6]": {"conditions": "10 mg/kg oral daily, end of study"}}, "data": [{"smiles": "CC1(C)CCC(C)(C)c2cc(C(/C=C/c3ccc(C(=O)O)cc3F)=N/O)ccc21", "note": "[GA2E, 3-fluoro-4-((1E,3E)-3-(hydroxyimino)-3-(5,5,8,8-tetramethyl-5,6,7,8-tetrahydronaphthalen-2-yl)prop-1-en-1-yl)benzoic acid]", "values": [{"measurement": "transactivation", "setting": "[1]", "value": "more than 85%"}, {"measurement": "T cells (anti-CD3) as mean percentage of the leukocytes in the tumor", "setting": "[2]; [6]", "value": "about 30%"}, {"measurement": "number of TIL", "setting": "[2]; [6]", "value": "increased"}, {"measurement": "proportion of CD8+ T cells that were memory cells (intracellular IFNγ)", "setting": "[2]; vs vehicle control, did not achieve statistical significance", "value": "numerically increased"}, {"measurement": "tolerability", "setting": "[3]; 10 mg/kg oral daily for 17 days", "value": "acceptably well-tolerated"}, {"measurement": "mice terminated for excessive weight loss", "setting": "[3]; 25 mg/kg group (n=10), oral daily", "value": "one mouse"}, {"measurement": "inhibiting tumor growth, 25 mg/kg dosage versus 10 mg/kg dosage", "setting": "[3]; 25 mg/kg oral daily", "value": "somewhat more effective"}, {"measurement": "tolerability", "setting": "[3]; 25 mg/kg oral daily for 17 days", "value": "acceptably well-tolerated"}, {"measurement": "weight loss", "setting": "[3]; 25 mg/kg, only a short excursion", "value": "more than 10%"}, {"measurement": "mice terminated for excessive weight loss", "setting": "[3]; 50 mg/kg oral daily (n=11)", "value": "terminated for excessive weight loss not later than Day 12"}, {"measurement": "tumor inhibition by the 50 mg/kg dosage versus the other dosages", "setting": "[3]; 50 mg/kg, limited time in the study (to Day 12)", "value": "not clearly different"}, {"measurement": "effect on viability as concentrations exceeded 10 μM", "setting": "[4]", "value": "rapidly became toxic"}, {"measurement": "effect on viability at concentrations below 1 μM", "setting": "[4]", "value": "no effect"}, {"measurement": "IC50", "setting": "[4]; Mus musculus, Lewis lung carcinoma", "value": 46, "unit": "µM"}, {"measurement": "proportion of Treg cells as a percentage of total T cell", "setting": "[5]; P<0.001", "value": "significantly reduced"}, {"measurement": "concentration of T helper cells", "setting": "[5]; per mg tumor, 10 and 25 mg/kg", "value": "did not change significantly"}, {"measurement": "concentration of T regulatory cells", "setting": "[5]; per mg tumor, 10 and 25 mg/kg", "value": "did not change significantly"}, {"measurement": "concentration of central memory CD8+ T cells", "setting": "[5]; per mg tumor, 10 and 25 mg/kg", "value": "did not change significantly"}, {"measurement": "concentration of naïve CD8+ T cells", "setting": "[5]; per mg tumor, 10 and 25 mg/kg", "value": "did not change significantly"}, {"measurement": "concentration of total CD4+ T cells", "setting": "[5]; per mg tumor, 10 and 25 mg/kg", "value": "did not change significantly"}, {"measurement": "concentration of effector memory CD8+ T cells", "setting": "[5]; per mg tumor, P<0.01 for the 25 mg/kg dosage", "value": "increased"}, {"measurement": "concentration of cytotoxic cells (CD8, intracellular IFN-γ)", "setting": "[5]; per mg tumor, P<0.05 for the 25 mg/kg dosage", "value": "increased"}, {"measurement": "concentration of total CD8+ lymphocytes in tumor", "setting": "[5]; per mg tumor, vs controls, P<0.05 for the 25 mg/kg dosage", "value": "increased"}]}]}
